Values joined by “and” are separate entries in the source; they are usually repeats but may differ in a detail not shown here. Equal values may be shown once. Read-outs that look alike come from different tables or passages of the source. Where only a bound is given, the exact number is not on record here.

A word on the IC50: it is the midpoint of a concentration-inhibition curve. Broadly, the inhibition is the share of the control response that was lost under treatment.

The target in experiment [1] is (eq)BuChE (BuChE from equine serum) (Equus caballus, UniProt P81908). Briefly: (eq)BuChE inhibition, Ellman test. Type of experiment: biochemical. As to conditions: for inhibition at 1 µM: read-out: (eq)BuChE % Inhibition at 10^−6 M. As for the experimental part:
. DPZ was used as a reference.
Inhibitory capacity of compounds on AChE biological activity was evaluated using the spectrometric method of Ellman. Acetyl- or butyrylthiocholine iodide and 5,5-dithiobis-(2-nitrobenzoic) acid (DTNB) were purchased from Sigma Aldrich. Lyophilized BuChE from equine serum (Sigma Aldrich) was dissolved in 0.2 M phosphate buffer pH 7.4 such as to have enzyme solutions stock with 2.5 units/mL enzyme activity. AChE from human erythrocytes (buffered aqueous solution, ≥500 units/mg protein (BCA), Sigma Aldrich) was diluted in 20 mM HEPES buffer pH 8, 0.1% Triton X-100 such as to have enzyme solution with 0.25 unit/mL enzyme activity. In the procedure, 100 μL of 0.3 mM DTNB dissolved in phosphate buffer pH 7.4 was added to the 96 wells plate followed by 50 μL of test compound solution and 50 μL of enzyme (0.05 U final). After 5 min of preincubation at 25 °C, the reaction was then initiated by the injection of 50 μL of 10 mM acetyl- or butyrylthiocholine iodide solution. The hydrolysis of acetyl- or butyrylthiocholine was monitored by the formation of yellow 5-thio-2-nitrobenzoate anion as the result of the reaction of DTNB with thiocholine, released by the enzymatic hydrolysis of acetyl- or butyrylthiocholine, at a wavelength of 412 nm using a 96-well microplate plate reader (TECAN Infinite M200, Lyon, France). […]. The rate of absorbance increase at 412 nm was followed every minute for 10 min. Assays were performed in simplicate during three independent tests, with a blank containing all components except acetyl- or butyrylthiocholine, in order to account for non-enzymatic reaction. The reaction slopes were compared, and the percent inhibition due to the presence of test compounds was calculated by the following expression: 100 − (vi/v0 × 100) where vi is the rate calculated in the presence of inhibitor and v0 is the enzyme activity.
First screening of AChE and BuChE activity was carried out at a 10^−6 or 10^−5 M concentration of compounds under study. […]
A general note: DTNB colorimetry detects thiols as they appear.

In the next experiment the target is T1, human recombinant MAO-B (Homo sapiens, UniProt P27338).
T1 construct: purchased Sigma Aldrich; host or cells: baculovirus infected insect cells (microsomes)
T1 sequence (P27338 1-520): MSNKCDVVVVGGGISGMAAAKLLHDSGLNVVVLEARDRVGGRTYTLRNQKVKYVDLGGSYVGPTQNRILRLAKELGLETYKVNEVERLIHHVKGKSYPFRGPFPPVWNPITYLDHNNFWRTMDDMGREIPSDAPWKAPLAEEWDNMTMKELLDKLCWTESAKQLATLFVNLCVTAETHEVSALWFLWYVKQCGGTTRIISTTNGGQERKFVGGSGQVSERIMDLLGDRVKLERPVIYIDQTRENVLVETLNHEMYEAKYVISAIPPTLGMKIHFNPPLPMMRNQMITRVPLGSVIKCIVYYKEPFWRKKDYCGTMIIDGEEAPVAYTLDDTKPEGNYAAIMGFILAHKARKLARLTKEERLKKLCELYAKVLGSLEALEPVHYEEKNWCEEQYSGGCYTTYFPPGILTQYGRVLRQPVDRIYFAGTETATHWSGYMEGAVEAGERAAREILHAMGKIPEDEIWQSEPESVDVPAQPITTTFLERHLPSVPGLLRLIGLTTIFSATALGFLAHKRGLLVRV
The experiment in a line: (h)MAO-B inhibition, kynuramine fluorescence assay. The experiment is classed as biochemical. As to conditions: kynuramine 50 µM; for inhibition at 10 µM: 10^−5 M; for IC50: (h)MAO-B IC50 (µM) (n = 3), mean ± SEM, n = 3. Here is the method:
(§1) Inhibition of human recombinant monoamine oxidases A (250 U/mg) and B (59 U/mg; microsomes from baculovirus infected insect cells; Sigma Aldrich) was determined as already described, measuring the fluorescence of 4-hydroxyquinoline (exc. 310 nm; em. 400 nm) produced by MAOs in the oxidative deamination of substrate kynuramine. […] Assays were performed in triplicate during three independent tests, in 96-well black polystyrene plates (Greiner Bio-One, Kremsmünster, Austria) using an Infinite M1000 Pro plate reader (Tecan, Cernusco s.N., Italy).

Experiment [2] concerns the target (h)AChE (AChE from human erythrocytes) (Homo sapiens, UniProt P22303). Briefly: biochemical. The conditions noted are these: for inhibition at 1 µM: read-out: (h)AChE % Inhibition at 10^−6 M. Here is the method: DPZ was used as a reference.
Inhibitory capacity of compounds on AChE biological activity was evaluated using the spectrometric method of Ellman. Acetyl- or butyrylthiocholine iodide and 5,5-dithiobis-(2-nitrobenzoic) acid (DTNB) were purchased from Sigma Aldrich. Lyophilized BuChE from equine serum (Sigma Aldrich) was dissolved in 0.2 M phosphate buffer pH 7.4 such as to have enzyme solutions stock with 2.5 units/mL enzyme activity. AChE from human erythrocytes (buffered aqueous solution, ≥500 units/mg protein (BCA), Sigma Aldrich) was diluted in 20 mM HEPES buffer pH 8, 0.1% Triton X-100 such as to have enzyme solution with 0.25 unit/mL enzyme activity. In the procedure, 100 μL of 0.3 mM DTNB dissolved in phosphate buffer pH 7.4 was added to the 96 wells plate followed by 50 μL of test compound solution and 50 μL of enzyme (0.05 U final). After 5 min of preincubation at 25 °C, the reaction was then initiated by the injection of 50 μL of 10 mM acetyl- or butyrylthiocholine iodide solution. […] Assays were performed in simplicate during three independent tests, with a blank containing all components except acetyl- or butyrylthiocholine, in order to account for non-enzymatic reaction. The reaction slopes were compared, and the percent inhibition due to the presence of test compounds was calculated by the following expression: 100 − (vi/v0 × 100) where vi is the rate calculated in the presence of inhibitor and v0 is the enzyme activity.

The target of a further experiment is T2, human recombinant MAO-A (Homo sapiens, UniProt P21397).
T2 construct: purchased Sigma Aldrich; host or cells: baculovirus infected insect cells (microsomes)
T2 sequence (P21397 1-527): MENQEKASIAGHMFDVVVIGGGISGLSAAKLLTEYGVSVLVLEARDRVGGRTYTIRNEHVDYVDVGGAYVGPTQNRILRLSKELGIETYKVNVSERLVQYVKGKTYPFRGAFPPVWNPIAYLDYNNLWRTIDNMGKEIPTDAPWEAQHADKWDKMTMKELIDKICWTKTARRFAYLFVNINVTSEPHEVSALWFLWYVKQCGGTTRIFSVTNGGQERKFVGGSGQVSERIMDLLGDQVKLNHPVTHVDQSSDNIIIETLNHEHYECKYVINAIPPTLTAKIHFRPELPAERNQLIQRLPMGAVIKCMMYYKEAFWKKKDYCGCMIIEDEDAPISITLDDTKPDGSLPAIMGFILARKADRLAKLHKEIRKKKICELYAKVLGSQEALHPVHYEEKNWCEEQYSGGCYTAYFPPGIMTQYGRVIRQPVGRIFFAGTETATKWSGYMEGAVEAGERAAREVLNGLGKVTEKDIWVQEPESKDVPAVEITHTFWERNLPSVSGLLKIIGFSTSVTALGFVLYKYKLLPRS
The experiment in a line: (h)MAO-A inhibition, kynuramine fluorescence assay. Type of experiment: biochemical. As to conditions: 10^−5 M; kynuramine 50 µM. As for the experimental part: as §1

Sequence of (h)AChE (AChE from human erythrocytes) (P22303 other isoform, or with tags, fused parts or gaps): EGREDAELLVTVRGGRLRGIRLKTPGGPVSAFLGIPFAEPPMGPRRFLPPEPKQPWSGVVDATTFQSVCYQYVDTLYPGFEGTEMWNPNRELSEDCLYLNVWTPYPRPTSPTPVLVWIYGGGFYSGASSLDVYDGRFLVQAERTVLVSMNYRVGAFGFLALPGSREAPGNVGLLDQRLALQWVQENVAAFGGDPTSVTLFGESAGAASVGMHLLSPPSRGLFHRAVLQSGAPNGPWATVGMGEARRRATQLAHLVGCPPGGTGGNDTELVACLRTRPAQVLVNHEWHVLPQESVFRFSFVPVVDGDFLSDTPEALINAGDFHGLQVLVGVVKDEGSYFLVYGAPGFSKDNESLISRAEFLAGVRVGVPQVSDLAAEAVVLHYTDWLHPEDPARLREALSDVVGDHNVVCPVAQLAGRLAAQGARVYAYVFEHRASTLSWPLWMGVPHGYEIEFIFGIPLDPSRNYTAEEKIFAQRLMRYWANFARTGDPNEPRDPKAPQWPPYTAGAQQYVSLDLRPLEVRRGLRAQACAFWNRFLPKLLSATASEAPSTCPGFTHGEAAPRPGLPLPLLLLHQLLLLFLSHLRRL
Sequence of (eq)BuChE (BuChE from equine serum) (P81908 whole entry): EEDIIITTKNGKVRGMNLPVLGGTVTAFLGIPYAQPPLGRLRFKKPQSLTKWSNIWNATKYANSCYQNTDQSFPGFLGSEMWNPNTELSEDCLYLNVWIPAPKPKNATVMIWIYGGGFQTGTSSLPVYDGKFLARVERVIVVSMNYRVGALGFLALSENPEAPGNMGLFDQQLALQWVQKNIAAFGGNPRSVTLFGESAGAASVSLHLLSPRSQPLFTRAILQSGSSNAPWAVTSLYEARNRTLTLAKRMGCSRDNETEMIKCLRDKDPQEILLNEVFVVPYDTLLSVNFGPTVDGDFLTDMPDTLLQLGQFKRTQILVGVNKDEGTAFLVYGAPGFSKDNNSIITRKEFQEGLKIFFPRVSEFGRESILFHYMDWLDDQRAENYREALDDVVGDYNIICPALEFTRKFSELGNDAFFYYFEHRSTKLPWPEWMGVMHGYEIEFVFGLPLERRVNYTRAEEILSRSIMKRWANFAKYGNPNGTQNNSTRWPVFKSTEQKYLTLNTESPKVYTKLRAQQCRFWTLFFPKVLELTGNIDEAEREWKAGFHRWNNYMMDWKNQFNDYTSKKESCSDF

Take `C#CCN[C@@H]1c2cc(OC)c(OC)cc2C(=O)[C@H]1CC1CCN(Cc2ccccc2)CC1` (relative stereo) [Trans-PADPZ (19), Trans 2-[(1-Benzyl-4-piperidyl)methyl]-5,6-dimethoxy-3-(prop-2-ynylamino)indan-1-one]: the IC50 is 4.23 ± 0.375 µM in experiment [1] ((eq)BuChE IC50 (µM) (n = 3), mean ± SEM, n = 3); 6.4 µM and 6.43 µM at human recombinant MAO-B; 0.4 µM and 0.442 µM in experiment [2] ((h)AChE IC50 (µM) (n = 3), mean ± SEM, n = 3); 0.44 µM in experiment [2] (value in nM, read-out: (h)AChE IC50). The inhibition at 1 µM in experiment [1] worked out at 74%; in experiment [2], 71%. In addition, the inhibition at 10 µM at human recombinant MAO-B came to 52%; on human recombinant MAO-A, 13%. Also, in experiment [2] (BuChE IC50 vs (h)AChE IC50), the “relative selectivity: BuChE inhibited at a concentration fold greater than AChE” value was determined as 10 fold.
For `C#CCNC1CC(=O)c2cc(OC)c(OC)cc21` (centres unmarked) [Compound 5, 5,6-Dimethoxy-3-(prop-2-ynylamino)indan-1-one], on human recombinant MAO-B, the inhibition at 10 µM was determined as 45% and the IC50 was determined as 13.4 ± 3.4 µM. On human recombinant MAO-A, the inhibition at 10 µM was less than 10%.
On to `COc1cc2c(cc1OC)C(NC(C)=O)C(CC1CCN(Cc3ccccc3)CC1)C2=O` (centres unmarked) [Compound 16], for which the inhibition at 1 µM in experiment [1] amounted to 39%; in experiment [2], 4%.

The values are drawn from publication PMC7795340, “First Synthesis of Racemic Trans Propargylamino-Donepezil, a Pleiotrope Agent Able to Both Inhibit AChE and MAO-B, with Potential Interest against Alzheimer’s Disease” (Molecules, 2020).
